Our source for the GI50 values is US9943506B2, “BCL6 inhibitors as anticancer agents” (Cornell University, priority 2013, dated 2018).

What all share (format): cell-based
In experiment [1] the test system is Ly7 DLBCL cells. The experiment in a line: Growth inhibition of DLBCL cells, Ly7. As for the experimental part: (§1) 50,000 cells per well were treated for 48 hours with different concentrations of the compounds in 96 well plates, using DMSO as a control. Then, viability was determined with Cell Titer Blue™ (Promega) and growth inhibition was calculated as the percentage of viable cells with respect to cells treated with DMSO alone. GI50 values were determined by dose-response curves.
(§2) 293T cells were grown in Dulbecco's modified Eagles medium supplemented with 10% fetal bovine serum (FBS) (Gemini Bio-Products, Woodland, Calif.) and 1% penicillin-streptomycin. DLBCL cell lines OCI-Ly1, OCI-Ly1-B50, OCI-Ly7, OCI-Ly10 and OCI-Ly19 were grown in 80% Iscove's medium, 20% FBS and penicillin G/streptomycin. DLBCL cell lines Toledo, Farage, SU-DHL4, DOHH-2, SC-1, RCK8, TMD8, HBL-1, Ly3, Karpas 422 and SU-DHL6 were cultured in 90% RPMI medium, 10% FBS, 2 mM glutamine, 10 mM Hepes and penicillin G/streptomycin. All cell lines were cultured at 37° C. in a humidified atmosphere of 5% CO2.

Experiment [2] has as its system SUDHL6 DLBCL cells. The experiment in a line: Growth inhibition of DLBCL cells, SUDHL6. As to conditions: Homo sapiens, SU-DHL-6. Here is the method: as §1, §2
Experiment [3] relates to Toledo DLBCL cells. The experiment in a line: Growth inhibition of DLBCL cells, Toledo. The note with it: Homo sapiens. Here is the method: as §1, §2
For experiment [4], the system named is Ly1B50 DLBCL cells. The experiment is described as follows: Growth inhibition of DLBCL cells, Ly1B50. As to conditions: Table 2; BCL-6 independent; 48 hours. Here is the method:
as §1, §2

In experiment [5] the test system is Karpas 422 DLBCL cells. The experiment in a line: Growth inhibition of DLBCL cells, Karpas 422. The note with it: Homo sapiens, Table 2, BCL-6 independent, 48 hours, read-out: GI50 Karpas 422. As for the experimental part: as §1, §2
In experiment [6] the test system is Ly10 DLBCL cells. The experiment is described as follows: Growth inhibition of DLBCL cells, Ly10. The note with it: Table 2, BCL-6 dependent, 48 hours. As for the experimental part:
as §1, §2

Experiment [7] deals with Ly3 DLBCL cells. The experiment in a line: Growth inhibition of DLBCL cells, Ly3. As to conditions: Table 2; BCL-6 dependent; 48 hours. Here is the method:
as §1, §2

Where [8] appears, read: Table 10, BCL6 dependent, read-out: GI50 SUDHL6.
[9] abbreviates: Table 2, BCL-6 dependent, 48 hours, read-out: GI50 SUDH6.
Where [10] appears, read: 48 h, Table 2, BCL-6 independent.
Setting [11] is: Table 2, BCL-6 dependent, 48 hours.
Where [12] appears, read: Table 2, BCL-6 independent, 48 hours.

Where two headings read alike, the source gives them in different places. Where only a bound is given, the exact number is not on record here.

By GI50 is commonly meant the concentration that inhibits growth by half. In the case of `Cc1ccc(COC(=O)Cn2c(=O)oc3cc(Cl)ccc32)cc1` [Compound 333], the GI50 in experiment [1] (Table 10, BCL6 dependent) is over 125 µM; in experiment [2] (setting [8]) it was over 125 µM; in experiment [3] (Table 10, BCL6 independent), over 125 µM.

As for `Cc1cccc(COC(=O)Cn2c(=O)oc3cc(Cl)ccc32)c1` [Compound 334], the GI50 in experiment [1] (Table 10, BCL6 dependent) was over 125 µM; in experiment [2] (setting [8]), over 125 µM; in experiment [3] (Table 10, BCL6 independent) it was over 125 µM.

For `O=C(Cn1c(=O)oc2cc(Cl)ccc21)OCc1ccc(C(F)(F)F)cc1` [Compound 339], the GI50 is over 125 µM in experiment [1] (Table 10, BCL6 dependent); over 125 µM in experiment [2] (setting [8]); over 125 µM in experiment [3] (Table 10, BCL6 independent).

Consider `C[C@@H](OC(=O)Cn1c(=O)oc2cc(Cl)ccc21)c1ccccc1` [Compound 341], for which the GI50 in experiment [1] (Table 10, BCL6 dependent) was over 125 µM; in experiment [2] (setting [8]), over 125 µM; in experiment [3] (Table 10, BCL6 independent) it was over 125 µM.

On to `COc1ccc2[nH]c(SCc3ccccc3)nc2c1` [Compound 1059], for which the GI50 in experiment [1] (Table 13, BCL6 dependent) is over 125 µM; in experiment [2] (Table 13, BCL6 dependent, read-out: GI50 SUDHL6) it was over 125 µM; in experiment [3] (Table 13, BCL6 independent), over 125 µM.

With `O=C(O)CCN1C(=O)/C(=C2/C(=O)Nc3c(Cl)cc(Cl)cc32)SC1=S` [Compound 1093, (Z)-3-(5-(5,7-Dichloro-2-oxoindolin-3-ylidene)-4-oxo-2-thioxothiazolidin-3-yl)propanoic acid], the GI50 was over 40 µM in experiment [4]; 30 ± 9 µM in experiment [1] (48 h, Table 2, BCL-6 dependent); over 40 µM in experiment [2] (setting [9]); over 40 µM in experiment [5]; 21 ± 12 µM in experiment [6]; over 40 µM in experiment [7]. The same compound returned a GI50 in experiment [3] (setting [10]) of over 40 µM.

As to `Cc1cc(Cl)cc2c1NC(=O)/C2=C1\SC(=S)N(CCC(=O)O)C1=O` [Compound 1095, (Z)-3-(5-(5-Chloro-7-methyl-2-oxoindolin-3-ylidene)-4-oxo-2-thioxothiazolidin-3-yl)propanoic acid], the GI50 in experiment [4] is over 40 µM; in experiment [1] (48 h, Table 2, BCL-6 dependent), over 40 µM; in experiment [2] (setting [9]), over 40 µM; in experiment [5], over 40 µM; in experiment [6] it was over 40 µM; in experiment [7], over 40 µM. This compound showed a GI50 in experiment [3] (setting [10]) of over 40 µM.

Take `Cc1ccc2c(c1)/C(=C1/SC(=S)N(CCC(=O)O)C1=O)C(=O)N2` [Compound 1097, (Z)-3-(5-(5-Methyl-2-oxoindolin-3-ylidene)-4-oxo-2-thioxothiazolidin-3-yl)propanoic acid]: the GI50 is over 40 µM in experiment [4]; over 40 µM in experiment [1] (48 h, Table 2, BCL-6 dependent); over 40 µM in experiment [2] (setting [9]); over 40 µM in experiment [5]; 18 ± 8 µM in experiment [6]; over 40 µM in experiment [7]. In addition, the GI50 in experiment [3] (setting [10]) is over 40 µM.

As to `COc1cc(Br)cc2c1NC(=O)/C2=C1\SC(=S)N(CCC(=O)O)C1=O` [Compound 1113, (Z)-3-(5-(5-Bromo-7-methoxy-2-oxoindolin-3-ylidene)-4-oxo-2-thioxothiazolidin-3-yl)propanoic acid], the GI50 in experiment [4] is over 40 µM; in experiment [1] (48 h, Table 2, BCL-6 dependent) it was 12 ± 7 µM; in experiment [2] (setting [9]), over 40 µM; in experiment [5] it was over 40 µM; in experiment [6] it was over 40 µM; in experiment [7], over 40 µM. The compound also had a GI50 in experiment [3] (setting [10]) of over 40 µM.

On to `O=C(O)CCN1C(=O)/C(=C2/C(=O)Nc3ccc(F)cc32)SC1=S` [Compound 1115, (Z)-3-(5-(5-Fluoro-2-oxoindolin-3-ylidene)-4-oxo-2-thioxothiazolidin-3-yl)propanoic acid], for which the GI50 in experiment [4] is over 40 µM; in experiment [1] (48 h, Table 2, BCL-6 dependent), 24 ± 6 µM; in experiment [2] (setting [9]), 26 ± 7 µM; in experiment [5], over 40 µM; in experiment [6], 34 ± 3 µM; in experiment [7], 22 ± 9 µM. The GI50 in experiment [3] (setting [10]) was over 40 µM.

Consider `O=C(O)CCN1C(=O)/C(=C2/C(=O)Nc3c(F)cccc32)SC1=S` [Compound 1117, (Z)-3-(5-(7-Fluoro-2-oxoindolin-3-ylidene)-4-oxo-2-thioxothiazolidin-3-yl)propanoic acid], for which the GI50 in experiment [4] was over 40 µM; in experiment [1] (48 h, Table 2, BCL-6 dependent), 36 ± 1 µM; in experiment [2] (setting [9]), 25 ± 4 µM; in experiment [5], over 40 µM; in experiment [6], over 40 µM; in experiment [7], 21 ± 4 µM. This compound showed a GI50 in experiment [3] (setting [10]) of over 40 µM.

For the compound `O=C(O)CCN1C(=O)/C(=C2/C(=O)Nc3ccc(Br)cc32)SC1=S` [Compound 1165, (Z)-3-(5-(5-Bromo-2-oxoindolin-3-ylidene)-4-oxo-2-thioxothiazolidin-3-yl)propanoic acid], the GI50 in experiment [4] is over 40 µM; in experiment [1] (48 h, Table 2, BCL-6 dependent) it was over 40 µM; in experiment [2] (setting [9]), over 40 µM; in experiment [5], over 40 µM; in experiment [6] it was 25 ± 9 µM; in experiment [7], 17 ± 6 µM. The compound further displayed a GI50 in experiment [3] (setting [10]) of over 40 µM.

As to `O=C(O)CCN1C(=O)/C(=C2/C(=O)Nc3c(Cl)cccc32)SC1=S` [Compound 1167, (Z)-3-(5-(7-Chloro-2-oxoindolin-3-ylidene)-4-oxo-2-thioxothiazolidin-3-yl)propanoic acid], the GI50 in experiment [4] is over 40 µM; in experiment [1] (48 h, Table 2, BCL-6 dependent), 22 ± 1 µM; in experiment [2] (setting [9]) it was 29 ± 1 µM; in experiment [5], over 40 µM; in experiment [6] it was 24 ± 2 µM; in experiment [7], over 40 µM. This compound also displayed a GI50 in experiment [3] (setting [10]) of over 40 µM.

In the case of `O=C(O)CCN1C(=O)/C(=C2/C(=O)Nc3ccc([N+](=O)[O-])cc32)SC1=S` [Compound 1169, (Z)-3-(5-(5-Nitro-2-oxoindolin-3-ylidene)-4-oxo-2-thioxothiazolidin-3-yl)propanoic acid], the GI50 was over 40 µM in experiment [4]; 28 ± 7 µM in experiment [1] (48 h, Table 2, BCL-6 dependent); 30 ± 3 µM in experiment [2] (setting [9]); 27 ± 8 µM in experiment [5]; 20 ± 10 µM in experiment [6]; 29 ± 5 µM in experiment [7]. In experiment [3] (setting [10]), the GI50 was over 40 µM.

Turning to `O=C(O)CCN1C(=O)/C(=C2/C(=O)Nc3ccccc32)SC1=S` [Compound 2001, (Z)-3-(4-Oxo-5-(2-oxoindolin-3-ylidene)-2-thioxothiazolidin-3-yl)propanoic acid], the GI50 is over 40 µM in experiment [4]; over 40 µM in experiment [1] (48 h, Table 2, BCL-6 dependent); over 40 µM in experiment [2] (setting [9]); over 40 µM in experiment [5]; over 40 µM in experiment [6]; over 40 µM in experiment [7]. In experiment [3] (setting [10]), this compound came in with a GI50 of over 40 µM.

Take `CCOC(=O)CCN1C(=O)/C(=C2/C(=O)Nc3ccc(Cl)cc32)SC1=S` [Compound 2003, (Z)-Ethyl 3-(5-(5-chloro-2-oxoindolin-3-ylidene)-4-oxo-2-thioxothiazolidin-3-yl)propanoate]: the GI50 was over 6 µM in experiment [4]; over 6 µM in experiment [1] (48 h, Table 2, BCL-6 dependent); over 6 µM in experiment [2] (setting [9]); over 6 µM in experiment [5]; over 6 µM in experiment [6]; over 6 µM in experiment [7]. In experiment [3] (setting [10]), this compound had a GI50 of over 6 µM.

Turning to `O=C(O)CCN1C(=O)/C(=C2/C(=O)Nc3ccc(I)cc32)SC1=S` [Compound 2005, (Z)-3-(5-(5-Iodo-2-oxoindolin-3-ylidene)-4-oxo-2-thioxothiazolidin-3-yl)propanoic acid], the GI50 in experiment [4] was over 40 µM; in experiment [1] (48 h, Table 2, BCL-6 dependent), over 40 µM; in experiment [2] (setting [9]), 25 ± 6 µM; in experiment [5], over 40 µM; in experiment [6], 21 ± 2 µM; in experiment [7], over 40 µM. In addition, the GI50 in experiment [3] (setting [10]) is over 40 µM.

Regarding `O=C(O)CCN1C(=O)C(C2(O)C(=O)Nc3ccc(F)cc32)SC1=S` (stereo not shown) [Compound 2021], the GI50 in experiment [4], in experiment [1] (setting [11]), in experiment [2] (setting [9]), in experiment [5], in experiment [6] and in experiment [7] was over 40 µM throughout. This compound showed a GI50 in experiment [3] (setting [12]) of over 40 µM.

With `O=C(O)CCN1C(=O)SC(C2(O)C(=O)Nc3ccc(Cl)cc32)C1=O` (stereo not shown) [Compound 2023], the GI50 in experiment [4] was over 40 µM; in experiment [1] (setting [11]), 21 ± 10 µM; in experiment [2] (setting [9]), 21 ± 3 µM; in experiment [5] it was over 40 µM; in experiment [6], over 40 µM; in experiment [7], over 40 µM. In experiment [3] (setting [12]), this compound yielded a GI50 of over 40 µM.

For `O=C(O)CCN1C(=O)C(C2(O)C(=O)Nc3ccc(Br)cc32)SC1=S` (stereo not shown) [Compound 2025], the GI50 in experiment [4] is over 40 µM; in experiment [1] (setting [11]), 13 ± 1 µM; in experiment [2] (setting [9]), 14 ± 2 µM; in experiment [5] it was 22 ± 7 µM; in experiment [6] it was 15 ± 8 µM; in experiment [7] it was over 40 µM. Moreover, in experiment [3] (setting [12]), the GI50 was over 40 µM.

Take `O=C(O)CCN1C(=O)SC(C2(O)C(=O)Nc3ccc(I)cc32)C1=O` (stereo not shown) [Compound 2027]: the GI50 is over 40 µM in experiment [4]; 8 ± 1 µM in experiment [1] (setting [11]); 7 ± 1 µM in experiment [2] (setting [9]); over 40 µM in experiment [5]; 6 ± 2 µM in experiment [6]; 14 ± 3 µM in experiment [7]. This compound yielded a concentration for 50% growth inhibition (GI50) in experiment [3] (setting [12]) of over 40 µM.
